Where two headings read alike, the source gives them in different places.
System: Mycosphaerella graminicola; Anamorph: Septoria tritici; Bayer Code SEPTTR
Assay: Leaf blotch of wheat, foliar fungicide treatment, one day protectant (1DP) or three day curative (3DC)
Format: in vivo, Septoria tritici on wheat plants (variety Yuma)
Conditions: Zymoseptoria tritici; for pest or weed control at 50 ppm / pest or weed control at 200 ppm: % disease control rating
[1] = 24 h, one day protectant (1DP), 25 ppm, percent disease control rating, read-out: SETTTR 1DP 25 ppm
[2] = 24 h, one day protectant (1DP), percent disease control rating, read-out: SEPTTR 1DP 100 ppm
[3] = 72 h, three day curative (3DC), 25 ppm, percent disease control rating, read-out: SEPTTR 3DC 25 ppm
[4] = 72 h, three day curative (3DC), percent disease control rating, read-out: SEPTTR 3DC 100 ppm
[5] = 24 h, one day protectant (1DP), 25 ppm, rating of percent disease control, read-out: SETTTR 1DP 25 ppm
[6] = 24 h, one day protectant (1DP), rating of percent disease control, read-out: SEPTTR 1DP 100 ppm
[7] = 72 h, three day curative (3DC), 25 ppm, rating of percent disease control, read-out: SEPTTR 3DC 25 ppm
[8] = 72 h, three day curative (3DC), rating of percent disease control, read-out: SEPTTR 3DC 100 ppm
[9] = 24 h, one day protectant, 25 ppm, rating of percent disease control, read-out: SETTTR 1DP 25 ppm
[10] = 24 h, one day protectant, rating of percent disease control, read-out: SEPTTR 1DP 100 ppm
[11] = 72 h, three day curative, 25 ppm, rating of percent disease control, read-out: SEPTTR 3DC 25 ppm
[12] = 72 h, three day curative, rating of percent disease control, read-out: SEPTTR 3DC 100 ppm
[13] = 24 h, one day protectant (1DP), 25 ppm (first 1DP column), percent control rating, read-out: SETTTR 1DP 25 ppm
[14] = 24 h, one day protectant (1DP), 25 ppm as printed (second 1DP column), percent control rating, read-out: SETTTR 1DP 25 ppm
[15] = 72 h, three day curative (3DC), 25 ppm, percent control rating, read-out: SEPTTR 3DC 25 ppm
[16] = 72 h, three day curative (3DC), percent control rating, read-out: SEPTTR 3DC 100 ppm

Which results are given for `CN1CCCC/C1=N\c1nc(OCc2ccc(F)cc2)ncc1F` [Compound 160]?
pest or weed control at 25 ppm [1]: 76 to 100%; pest or weed control at 100 ppm [2]: 76 to 100%; pest or weed control at 25 ppm [3]: 76 to 100%; pest or weed control at 100 ppm [4]: 76 to 100%

With `Nc1nc(OCc2ccc(F)c(F)c2)ncc1F` [Compound 210] as the molecule, how does the pest or weed control at 25 ppm [5] read?
The pest or weed control at 25 ppm was 76 to 100%.

And the pest or weed control at 100 ppm [6]?
The pest or weed control at 100 ppm was 76 to 100%.

And the pest or weed control at 25 ppm [7]?
Its pest or weed control at 25 ppm is 76 to 100%.

And the pest or weed control at 100 ppm [8]?
The pest or weed control at 100 ppm was 76 to 100%.

What does the source list for `Fc1ccc(COc2ncc(F)c(N/N=C/c3ccccc3Cl)n2)cc1` [Compound 700]?
pest or weed control at 25 ppm [9]: 0 to 25%; pest or weed control at 100 ppm [10]: 51 to 75%; pest or weed control at 25 ppm [11]: 26 to 50%; pest or weed control at 100 ppm [12]: 76 to 100%

With `COc1nn(C)c(C(F)(F)F)c1S(=O)(=O)Nc1nc(OCc2ccc(C)cc2)ncc1F` [Compound 1015] as the molecule, how does the pest or weed control at 25 ppm [13] read?
The pest or weed control at 25 ppm was 0 to 25%.

What about the pest or weed control at 25 ppm [14] of the same molecule?
Its pest or weed control at 25 ppm is 0 to 25%.

And the pest or weed control at 25 ppm [15]?
Its pest or weed control at 25 ppm is 26 to 50%.

And the pest or weed control at 100 ppm [16]?
The pest or weed control at 100 ppm was 76 to 100%.

What does the source list for `Fc1cnc(OC2CCCCC2)nc1NCc1ccc(Cl)cc1` [Compound 903]?
pest or weed control at 50 ppm (24 h, one day protectant): 0 to 25%; pest or weed control at 200 ppm (24 h, one day protectant): 76 to 100%

What does the source list for `Fc1ccc(COc2ncc(F)c(NCc3ccccc3F)n2)c(F)c1` [Compound 921]?
pest or weed control at 50 ppm (24 h, one day protectant): 76 to 100%; pest or weed control at 200 ppm (24 h, one day protectant): 76 to 100%

With `Fc1cnc(OCc2cccc(C(F)(F)F)c2)nc1NC1CC1` [Compound 826] as the molecule, how does the pest or weed control at 200 ppm (24 h, one day protectant) read?
The pest or weed control at 200 ppm was 76 to 100%.

How did the pest or weed control at 25 ppm [5] turn out when `CCOC(=O)COC(=O)Nc1nc(OCc2ccc(F)cc2)ncc1F` [Compound 295] was run?
Its pest or weed control at 25 ppm is 76 to 100%.

What about the pest or weed control at 100 ppm [6] of the same molecule?
The pest or weed control at 100 ppm was 76 to 100%.

What about the pest or weed control at 25 ppm [7] of the same molecule?
The pest or weed control at 25 ppm was 76 to 100%.

And the pest or weed control at 100 ppm [8]?
Its pest or weed control at 100 ppm is 76 to 100%.

`COc1ncc(F)c(N/N=C(\C)c2sc(C)nc2C)n1` [Compound 1025] was tested. Which pest or weed control at 25 ppm [13] did it give?
Its pest or weed control at 25 ppm is 0 to 25%.

What about the pest or weed control at 25 ppm [14] of the same molecule?
Its pest or weed control at 25 ppm is 0 to 25%.

What about the pest or weed control at 25 ppm [15] of the same molecule?
The pest or weed control at 25 ppm was 26 to 50%.

And the pest or weed control at 100 ppm [16]?
Its pest or weed control at 100 ppm is 0 to 25%.

For `C=CCOc1ncc(F)c(NNC(=O)C=C(C)C)n1` [Compound 1123], which pest or weed control at 25 ppm [13] is on record?
Its pest or weed control at 25 ppm is 0 to 25%.

And the pest or weed control at 25 ppm [14]?
Its pest or weed control at 25 ppm is 0 to 25%.

What about the pest or weed control at 25 ppm [15] of the same molecule?
Its pest or weed control at 25 ppm is 0 to 25%.

What about the pest or weed control at 100 ppm [16] of the same molecule?
Its pest or weed control at 100 ppm is 0 to 25%.

What does the source list for `Nc1nc(OCc2ccc(CO)cc2)ncc1F` [Compound 637]?
pest or weed control at 25 ppm [9]: 76 to 100%; pest or weed control at 100 ppm [10]: 76 to 100%; pest or weed control at 25 ppm [11]: 76 to 100%; pest or weed control at 100 ppm [12]: 76 to 100%

What does the source list for `Cc1cc(C)cc(C(C)Oc2ncc(F)c(N)n2)c1` (stereo not shown) [Compound 592]?
pest or weed control at 25 ppm [9]: 76 to 100%; pest or weed control at 100 ppm [10]: 76 to 100%; pest or weed control at 25 ppm [11]: 76 to 100%; pest or weed control at 100 ppm [12]: 76 to 100%

For `CC1(COc2ncc(F)c(N)n2)COC1` [Compound 433], which pest or weed control at 25 ppm [5] is on record?
The pest or weed control at 25 ppm was 0 to 25%.

And the pest or weed control at 100 ppm [6]?
Its pest or weed control at 100 ppm is 0 to 25%.

What about the pest or weed control at 25 ppm [7] of the same molecule?
The pest or weed control at 25 ppm was 0 to 25%.

And the pest or weed control at 100 ppm [8]?
The pest or weed control at 100 ppm was 0 to 25%.

How did the pest or weed control at 200 ppm (24 h, one day protectant) turn out when `COc1cccc(COc2ncc(F)c(NCc3cccs3)n2)c1` [Compound 931] was run?
Its pest or weed control at 200 ppm is 76 to 100%.

Which pest or weed control at 25 ppm [9] does the source give for `CCc1ccccc1NNc1nc(OCc2ccc(F)cc2)ncc1F` [Compound 667] here?
Its pest or weed control at 25 ppm is 0 to 25%.

And the pest or weed control at 100 ppm [10]?
The pest or weed control at 100 ppm was 76 to 100%.

What about the pest or weed control at 25 ppm [11] of the same molecule?
The pest or weed control at 25 ppm was 0 to 25%.

What about the pest or weed control at 100 ppm [12] of the same molecule?
Its pest or weed control at 100 ppm is 76 to 100%.

What does the source list for `COCNc1nc(OCc2ccc(F)cc2)ncc1F` [Compound 362]?
pest or weed control at 25 ppm [5]: 51 to 75%; pest or weed control at 100 ppm [6]: 76 to 100%; pest or weed control at 25 ppm [7]: 51 to 75%; pest or weed control at 100 ppm [8]: 76 to 100%

Which results are given for `Nc1nc(OCc2ccc(F)c(Br)c2)ncc1F` [Compound 156]?
pest or weed control at 25 ppm [1]: 76 to 100%; pest or weed control at 100 ppm [2]: 76 to 100%; pest or weed control at 25 ppm [3]: 76 to 100%; pest or weed control at 100 ppm [4]: 76 to 100%

From patent publication US9204653B2, “5-fluoro pyrimidine derivatives” (DOW AGROSCIENCES LLC, priority 2008, dated 2015)
